In the Deep4Chem optical property database:

Assay: solvent given as SMILES

## O=P1(c2ccccc2)C(c2cc(C(F)(F)F)cc(C(F)(F)F)c2)=Cc2c3ccc4cccc5ccc(c6cc(-c7ccccc7)n1c26)c3c45 (centres undefined)
In C1CCCCC1
  fluorescence lifetime: 1.9 ns
In C1CCOC1
  fluorescence lifetime: 3.1 ns
In C1COCCO1
  fluorescence lifetime: 2.6 ns
In CC#N
  fluorescence lifetime: 3.7 ns
In CC(C)=O
  fluorescence lifetime: 3.6 ns
In CO
  fluorescence lifetime: 3.8 ns
In Cc1ccccc1
  fluorescence lifetime: 2.5 ns
In ClC(Cl)Cl
  fluorescence lifetime: 2.4 ns
In ClCCl
  fluorescence lifetime: 2.9 ns

## c1ccc(-c2nc(-c3ccccc3)nc(-c3ccc(-n4c5ccccc5c5cc6c(cc54)C4c5ccccc5C6c5ccccc54)cc3)n2)cc1
In O=P(c1ccccc1)(c1ccccc1)c1ccccc1Oc1ccccc1P(=O)(c1ccccc1)c1ccccc1
  fluorescence lifetime: 9 ns

## Cc1cc(C)n2c1C=C1c3ccccc3C(c3ccc[nH]3)=[N+]1[B-]2(F)F
In C1CCOC1
  fluorescence lifetime: 7.36 ns
In CC#N
  fluorescence lifetime: 7.41 ns
In CCCCCC
  fluorescence lifetime: 7.93 ns
In CO
  fluorescence lifetime: 7.47 ns
In Cc1ccccc1
  fluorescence lifetime: 6.82 ns
In ClCCl
  fluorescence lifetime: 7.28 ns

## COC(=O)c1cc(=O)n(C)c2cc(-c3ccc(OC)cc3)sc12
In ClCCl
  fluorescence lifetime: 2.3 ns

## O=C1c2ccccc2-c2ccc(N3CCN(c4ccccc4)CC3)c3cccc1c23
In C1CCCCC1
  fluorescence lifetime: 7.85 ns
In C1CCOC1
  fluorescence lifetime: 2.59 ns
In C1COCCO1
  fluorescence lifetime: 8.98 ns
In CC1COC(=O)O1
  fluorescence lifetime: 0.09 ns
In CC#N
  fluorescence lifetime: 0.03 ns
In CC(C)=O
  fluorescence lifetime: 0.09 ns
In CCCCCCCCO
  fluorescence lifetime: 0.29 ns
In CCCCCO
  fluorescence lifetime: 0.22 ns
In CCCCO
  fluorescence lifetime: 0.16 ns
In CCCO
  fluorescence lifetime: 0.22 ns
In CCO
  fluorescence lifetime: 0.07 ns
In CCOC(C)=O
  fluorescence lifetime: 2 ns
In CN(C)C=O
  fluorescence lifetime: 0.06 ns
In CO
  fluorescence lifetime: 0.03 ns
In CS(C)=O
  fluorescence lifetime: 0.06 ns
In Cc1ccccc1
  fluorescence lifetime: 9.06 ns
In ClC(Cl)Cl
  fluorescence lifetime: 8.88 ns

## CCCCCCN1C(=O)c2cccc3c(-c4ccc(-c5ccc(-c6ccc7c8c(cccc68)C(=O)N(CCCCCC)C7=O)s5)s4)ccc(c23)C1=O
In ClC(Cl)Cl
  fluorescence lifetime: 0.535 ns

## CNc1cccc2c1C(=O)c1ccccc1C2=O
In C1CCC2CCCCC2C1
  fluorescence lifetime: 0.446 ns
In C1CCCCC1
  fluorescence lifetime: 0.443 ns
In CC1CCCCC1
  fluorescence lifetime: 0.445 ns
In CC#N
  fluorescence lifetime: 0.204 ns
In CCC(C)CC
  fluorescence lifetime: 0.444 ns
In CCCCCC
  fluorescence lifetime: 0.451 ns
In CCOC(C)=O
  fluorescence lifetime: 0.253 ns

## CCCCCCCCOc1cc(/C=C/c2cc[n+](Cc3ccc(C)cc3)cc2)c(OCCCCCCCC)cc1/C=C/c1cc[n+](Cc2ccc(C)cc2)cc1
In ClCCl
  fluorescence lifetime: 1.23 ns

## CC[N+](CC)=c1ccc2c(-c3ccccc3C(=O)O)c3c(=O)oc4c5c6c(cc4c3oc-2c1)CCCN6CCC5
In CCO
  fluorescence lifetime: 0.47 ns
In ClC(Cl)Cl
  fluorescence lifetime: 2.87 ns
In O
  fluorescence lifetime: 0.16 ns

## Cc1ccc(-c2cc(-c3ccccc3Cl)c3c(N)nc(N4CCCC4)c(C#N)c3n2)cc1
In CC#N
  fluorescence lifetime: 11.3 ns
In CC(C)=O
  fluorescence lifetime: 11.1 ns
In CC(C)O
  fluorescence lifetime: 11.3 ns
In CO
  fluorescence lifetime: 9.7 ns
In ClC(Cl)Cl
  fluorescence lifetime: 13.7 ns
In ClCCl
  fluorescence lifetime: 13.7 ns
In c1ccccc1
  fluorescence lifetime: 12.8 ns

## COC(=O)/C(C#N)=c1\s/c(=c2/s/c(=C(/C#N)C(=O)OC)c3cc(-c4ccc5c(c4)C(C)(C)c4ccccc4-5)sc23)c2sc(-c3ccc4c(c3)C(C)(C)c3ccccc3-4)cc12
In Cc1ccccc1
  fluorescence lifetime: 4.38 ns

## Cc1ccc2c(c1)C1(c3ccccc3Oc3ccccc31)c1cc(C)ccc1N2c1ccc(-c2ncccn2)cc1
In O=P(c1ccccc1)(c1ccccc1)c1ccc2oc3ccc(P(=O)(c4ccccc4)c4ccccc4)cc3c2c1
  fluorescence lifetime: 11 ns

## COc1ccc2c(c1)c1cc(OC)ccc1n2-c1ccc2c(c1)-c1cc(-n3c4ccc(OC)cc4c4cc(OC)ccc43)ccc1P2(=O)c1ccccc1
In c1ccc2c(c1)c1ccccc1n2-c1ccc(-c2ccc(-n3c4ccccc4c4ccccc43)cc2)cc1
  fluorescence lifetime: 16.7 ns

## COC(=O)c1ccc(C#Cc2ccc(N(C)C)cc2)cc1
In C1CCCCC1
  fluorescence lifetime: 1.35 ns
In C1CCOC1
  fluorescence lifetime: 2.43 ns
In C1COCCO1
  fluorescence lifetime: 2.38 ns
In CC1CCCO1
  fluorescence lifetime: 2.68 ns
In CC#N
  fluorescence lifetime: 1.48 ns
In CC(C)=O
  fluorescence lifetime: 1.51 ns
In CC(C)CC(C)(C)C
  fluorescence lifetime: 0.73 ns
In CC(C)O
  fluorescence lifetime: 1.32 ns
In CCCCCCCCCCCCCCCC
  fluorescence lifetime: 0.75 ns
In CCCCCCCCCCCCCCCCCl
  fluorescence lifetime: 0.92 ns
In CCOC(C)=O
  fluorescence lifetime: 2.47 ns
In CCOCC
  fluorescence lifetime: 0.959 ns
In CN(C)C=O
  fluorescence lifetime: 1.7 ns
In CS(C)=O
  fluorescence lifetime: 1.92 ns
In Cc1ccccc1
  fluorescence lifetime: 0.9 ns

## CCCCC(CC)COc1ccc2nc(-c3ccc(-c4c(C)noc4C)s3)sc2c1 (centres undefined)
In ClCCl
  fluorescence lifetime: 1.8 ns

## COc1cc2c(cc1-c1ccccc1)Cc1c3c(c4c(c1-2)-c1cc(OC)c(-c2ccccc2)cc1C4)C(=O)N(CCC(C)C)C3=O
In C1CCOC1
  fluorescence lifetime: 3.87 ns
In CC#N
  fluorescence lifetime: 6.33 ns
In CC(C)=O
  fluorescence lifetime: 5.36 ns
In CCOC(C)=O
  fluorescence lifetime: 3.99 ns
In CS(C)=O
  fluorescence lifetime: 6.41 ns
In Cc1ccccc1
  fluorescence lifetime: 2.55 ns
In ClC(Cl)Cl
  fluorescence lifetime: 5.95 ns
In ClCCl
  fluorescence lifetime: 5.64 ns

## CC1=C(c2ccc(N(C)C)cc2)C(C)=[N+]2C1=C(c1c(-c3ccccn3)nc3ccccn13)c1c(C)c(-c3ccc(N(C)C)cc3)c(C)n1[B-]2(F)F
In ClCCl
  fluorescence lifetime: 0.2 ns

## CC(C)(C)OC(=O)n1ccc2c3ccc4cccc5ccc(cc21)c3c54
In CCOC(C)=O
  fluorescence lifetime: 8.29 ns

## CCOC(=O)C1=CNC=C(C(=O)OCC)C1c1ccccc1
In C1CCOC1
  fluorescence lifetime: 7.83 ns
In CO
  fluorescence lifetime: 13.8 ns

## c1ccc(-c2cc3cccc[n+]3[b-]3ccc(-c4cc[b-]5c(c4)c(-c4ccccc4)cc4cccc[n+]54)cc32)cc1
In C1CCCCC1
  fluorescence lifetime: 4 ns

## CC(=O)N(Cc1ccccn1)c1c2ccccc2c2c3c(cccc13)C(=O)N(Cc1ccccn1)C2=O
In CCO
  fluorescence lifetime: 1.66 ns

## Cc1cccc(C)c1Nc1ccc(/C=C/c2ccc3ccccc3c2)cc1
In CC#N
  fluorescence lifetime: 0.2 ns

## N#Cc1ccc(-n2c(-c3ccc(-c4ccc(-n5c6ccccc6c6ccccc65)cc4)s3)nc3c4ccccc4c4ccccc4c32)c2ccccc12
In ClCCl
  fluorescence lifetime: 4.3 ns

## Nc1ccc2c3cccc4cccc(c5cccc1c52)c43
In C1CCCCC1
  fluorescence lifetime: 5.3 ns
In CC#N
  fluorescence lifetime: 5.5 ns
In CCOC(C)=O
  fluorescence lifetime: 5.1 ns
In CO
  fluorescence lifetime: 5 ns
In CS(C)=O
  fluorescence lifetime: 5.6 ns
In ClCCl
  fluorescence lifetime: 6.8 ns

## CC1(C)c2ccccc2N(c2ccc(-c3nnc(-c4ccccc4)o3)cc2)c2ccccc21
In Cc1ccccc1
  fluorescence lifetime: 7 ns
In c1ccc(-n2c(-c3c(-n4c5ccccc5c5ccccc54)cccc3-n3c4ccccc4c4ccccc43)nc3ccccc32)cc1
  fluorescence lifetime: 7.8 ns

## COc1cc2c(cc1-c1ccc(C(F)(F)F)cc1)Cc1c3c(c4c(c1-2)-c1cc(OC)c(-c2ccc(C(F)(F)F)cc2)cc1C4)C(=O)N(CCC(C)C)C3=O
In C1CCOC1
  fluorescence lifetime: 2.43 ns

## COc1nc(Nc2ccc3c4cccc5cccc(c6cccc2c63)c54)nc(OC)n1
In CCOC(C)=O
  fluorescence lifetime: 3.5 ns
In CS(C)=O
  fluorescence lifetime: 4 ns

## CC(C)(C)c1ccc2c(c1)c1cc(C(C)(C)C)ccc1n2-c1ccccc1-c1nccnc1C#N
In c1cc(-n2c3ccccc3c3ccccc32)cc(-n2c3ccccc3c3ccccc32)c1
  fluorescence lifetime: 9.7 ns

## N#CC(C#N)=Cc1ccc(-c2ccc(N(c3ccccc3)c3ccccc3)cc2)o1
In ClC(Cl)Cl
  fluorescence lifetime: 2.73 ns

## CCN(CC)c1ccc2cc(-c3ccc(-c4ccc(-c5cc6ccc(N(CC)CC)cc6oc5=O)cc4)cc3)c(=O)oc2c1
In ClCCl
  fluorescence lifetime: 10.1 ns

## CN1/C(=C/C=C/C2=[N+](CCCCCC(=O)O)c3ccc(S(=O)(=O)[O-])cc3C2(C)C)C(C)(C)c2cc(S(=O)(=O)[O-])ccc21
In O
  fluorescence lifetime: 0.3 ns

## CCN1C(=O)C(C2C(=O)c3c4ccccc4cc4cc5ccccc5c2c34)SC1=S (centres undefined)
In C1CCOC1
  fluorescence lifetime: 11.8 ns
In CC#N
  fluorescence lifetime: 7.8 ns
In CCCCCC
  fluorescence lifetime: 12.8 ns
In Cc1ccccc1
  fluorescence lifetime: 13.2 ns
In ClCCl
  fluorescence lifetime: 10.4 ns

## Cc1cc(C)c(B(c2c(C)cc(C)cc2C)c2cc3ccc4ccccc4c3c3c2cc(N(C)C)c2ccccc23)c(C)c1
In C1CCCCC1
  fluorescence lifetime: 8.8 ns

## CC(C)(C)c1ccc(/C=C/c2ccc(N(c3ccc(/C=C/c4ccc(C(C)(C)C)cc4)cc3)c3ccc(-c4nc5ccccc5nc4-c4ccc(N(c5ccc(/C=C/c6ccc(C(C)(C)C)cc6)cc5)c5ccc(/C=C/c6ccc(C(C)(C)C)cc6)cc5)cc4)cc3)cc2)cc1
In C1CCOC1
  fluorescence lifetime: 2.3 ns

## [O-][n+]1c(/C=C/c2ccccc2)nc(N2CCOCC2)c2c1CCCC2
In ClCCl
  fluorescence lifetime: 9.2 ns

## C[Si](C)(C)c1ccc2ccc3cccc4ccc1c2c34
In CCCCCC
  fluorescence lifetime: 66.9 ns
In CO
  fluorescence lifetime: 175 ns
In ClCCl
  fluorescence lifetime: 94.2 ns
